From the supplement of paper PMC9663587

How the values were obtained:
[1] = compound: CC(=O)c1c(C)c2cnc(Nc3ccc(N4CCN(CCOCCOCCOCCNC(=O)COc5cccc6c5C(=O)N(C5CCC(=O)NC5=O)C6=O)CC4)cn3)nc2n(C2CCCC2)c1=O [BSJ-03-123]; assay: increase in dead-cell fraction, 72 h; higher = more death;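 also: breast cancer cell lines in 384-well plates, stained with Hoechst plus LIVE/DEAD far red dye and imaged, cells above an LDR intensity threshold counted dead, Hoechst-negative corpses included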
[2] = compound: CN(C)C(=O)c1cc2cnc(Nc3ccc(N4CCNCC4)cn3)nc2n1C1CCCC1 [LEE011/Ribociclib]; assay: as above
[3] = compound: T1, CN(C)C/C=C/C(=O)Nc1ccc(C(=O)Nc2cccc(Nc3ncc(Cl)c(-c4c[nH]c5ccccc45)n3)c2)cc1 [THZ1]; assay: as above
[4] = compound: T2, CN1CC[C@H](c2c(O)cc(O)c3c(=O)cc(-c4ccccc4Cl)oc23)[C@H](O)C1 [Flavopiridol]; assay: as above
[5] = compound: CN(C)C/C=C/C(=O)Nc1ccc(C(=O)N2CCC[C@@H](Nc3ncc(Cl)c(-c4c[nH]c5ccccc45)n3)C2)cc1 [THZ531]; assay: GR value, 72 h; higher = faster growth (1 = untreated, <0 = killing);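 also: breast cancer and non-malignant breast epithelial lines, nine half-log doses, viable cells counted by Hoechst and LIVE/DEAD dye imaging versus time-zero plates and DMSO controls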
[6] = compound: T1, THZ1; assay: as above
[7] = compound: T2, Flavopiridol; assay: as above

PDX1206
increase in dead-cell fraction ([1]; 0.001 µM): -0.0047
increase in dead-cell fraction ([1]; 0.003162 µM): -0.004
increase in dead-cell fraction ([1]; 0.01 µM): -0.0083
increase in dead-cell fraction ([1]; 0.03162 µM): -0.0021
increase in dead-cell fraction ([1]; 0.1 µM): -0.0156
increase in dead-cell fraction ([1]; 0.3162 µM): -0.0027
increase in dead-cell fraction ([1]; 1 µM): -0.0025
increase in dead-cell fraction ([1]; 3.162 µM): -0.0175
increase in dead-cell fraction ([1]; 10 µM): 0.217
increase in dead-cell fraction ([2]; 0.001 µM): -0.0167
increase in dead-cell fraction ([2]; 0.003162 µM): -0.0241
increase in dead-cell fraction ([2]; 0.01 µM): 0.009
increase in dead-cell fraction ([2]; 0.03162 µM): -0.0043
increase in dead-cell fraction ([2]; 0.1 µM): -0.0009
increase in dead-cell fraction ([2]; 0.3162 µM): 0.0111
increase in dead-cell fraction ([2]; 1 µM): -0.0007
increase in dead-cell fraction ([2]; 3.162 µM): 0.0201
increase in dead-cell fraction ([2]; 10 µM): 0.0115
increase in dead-cell fraction ([3]; 0.0001 µM): -0.0189
increase in dead-cell fraction ([3]; 0.0003162 µM): 0.0062
increase in dead-cell fraction ([3]; 0.001 µM): -0.0104
increase in dead-cell fraction ([3]; 0.003162 µM): -0.008
increase in dead-cell fraction ([3]; 0.01 µM): -0.0089
increase in dead-cell fraction ([3]; 0.03162 µM): 0.0587
increase in dead-cell fraction ([3]; 0.1 µM): 0.346
increase in dead-cell fraction ([3]; 0.3162 µM): 0.424
increase in dead-cell fraction ([3]; 1 µM): 0.513
increase in dead-cell fraction ([4]; 0.0001 µM): 0.009
increase in dead-cell fraction ([4]; 0.0003162 µM): 0.0115
increase in dead-cell fraction ([4]; 0.001 µM): 0.0015
increase in dead-cell fraction ([4]; 0.003162 µM): 0.0091
increase in dead-cell fraction ([4]; 0.01 µM): -0.0105
increase in dead-cell fraction ([4]; 0.03162 µM): 0.0053
increase in dead-cell fraction ([4]; 0.1 µM): 0.0408
increase in dead-cell fraction ([4]; 0.3162 µM): 0.405
increase in dead-cell fraction ([4]; 1 µM): 0.587
GR value ([5]; 0.0001 µM): 1.14 GR
GR value ([5]; 0.0003162 µM): 0.992 GR
GR value ([5]; 0.001 µM): 1.01 GR
GR value ([5]; 0.003162 µM): 1.05 GR
GR value ([5]; 0.01 µM): 1.02 GR
GR value ([5]; 0.03162 µM): 0.9 GR
GR value ([5]; 0.1 µM): -0.371 GR
GR value ([5]; 0.3162 µM): -0.273 GR
GR value ([5]; 1 µM): -0.29 GR
GR value ([6]; 0.0001 µM): 1.05 GR
GR value ([6]; 0.0003162 µM): 1.03 GR
GR value ([6]; 0.001 µM): 0.987 GR
GR value ([6]; 0.003162 µM): 0.977 GR
GR value ([6]; 0.01 µM): 0.933 GR
GR value ([6]; 0.03162 µM): 0.351 GR
GR value ([6]; 0.1 µM): -0.278 GR
GR value ([6]; 0.3162 µM): -0.408 GR
GR value ([6]; 1 µM): -0.536 GR
GR value ([7]; 0.0001 µM): 1.09 GR
GR value ([7]; 0.0003162 µM): 0.867 GR
GR value ([7]; 0.001 µM): 0.803 GR
GR value ([7]; 0.003162 µM): 0.812 GR
GR value ([7]; 0.01 µM): 1.03 GR
GR value ([7]; 0.03162 µM): 0.485 GR
GR value ([7]; 0.1 µM): 0.393 GR
GR value ([7]; 0.3162 µM): -0.402 GR
GR value ([7]; 1 µM): -0.571 GR

MCF10A (GM)
increase in dead-cell fraction ([1]; 0.001 µM): 0.0019
increase in dead-cell fraction ([1]; 0.003162 µM): -0.0004
increase in dead-cell fraction ([1]; 0.01 µM): 0.0026
increase in dead-cell fraction ([1]; 0.03162 µM): 0.0037
increase in dead-cell fraction ([1]; 0.1 µM): 0.0042
increase in dead-cell fraction ([1]; 0.3162 µM): 0.0033
increase in dead-cell fraction ([1]; 1 µM): 0.0209
increase in dead-cell fraction ([1]; 3.162 µM): 0.0255
increase in dead-cell fraction ([1]; 10 µM): 0.455
increase in dead-cell fraction ([2]; 0.001 µM): 0.0013
increase in dead-cell fraction ([2]; 0.003162 µM): 0.0004
increase in dead-cell fraction ([2]; 0.01 µM): 0.002
increase in dead-cell fraction ([2]; 0.03162 µM): 0.0019
increase in dead-cell fraction ([2]; 0.1 µM): 0.0026
increase in dead-cell fraction ([2]; 0.3162 µM): 0.0035
increase in dead-cell fraction ([2]; 1 µM): 0.0035
increase in dead-cell fraction ([2]; 3.162 µM): 0.0073
increase in dead-cell fraction ([2]; 10 µM): 0.0229
increase in dead-cell fraction ([3]; 0.0001 µM): -0.0002
increase in dead-cell fraction ([3]; 0.0003162 µM): -0.0005
increase in dead-cell fraction ([3]; 0.001 µM): -0.0015
increase in dead-cell fraction ([3]; 0.003162 µM): 0.0003
increase in dead-cell fraction ([3]; 0.01 µM): 0.0067
increase in dead-cell fraction ([3]; 0.03162 µM): 0.127
increase in dead-cell fraction ([3]; 0.1 µM): 0.225
increase in dead-cell fraction ([3]; 0.3162 µM): 0.256
increase in dead-cell fraction ([3]; 1 µM): 0.61
increase in dead-cell fraction ([4]; 0.0001 µM): -0.0007
increase in dead-cell fraction ([4]; 0.0003162 µM): -0.0019
increase in dead-cell fraction ([4]; 0.001 µM): -0.0004
increase in dead-cell fraction ([4]; 0.003162 µM): -0.0003
increase in dead-cell fraction ([4]; 0.01 µM): 0.0027
increase in dead-cell fraction ([4]; 0.03162 µM): 0.0152
increase in dead-cell fraction ([4]; 0.1 µM): 0.0701
increase in dead-cell fraction ([4]; 0.3162 µM): 0.491
increase in dead-cell fraction ([4]; 1 µM): 0.66
GR value ([5]; 0.0001 µM): 1 GR
GR value ([5]; 0.0003162 µM): 1 GR
GR value ([5]; 0.001 µM): 0.992 GR
GR value ([5]; 0.003162 µM): 0.983 GR
GR value ([5]; 0.01 µM): 0.997 GR
GR value ([5]; 0.03162 µM): 0.974 GR
GR value ([5]; 0.1 µM): 0.926 GR
GR value ([5]; 0.3162 µM): 0.707 GR
GR value ([5]; 1 µM): -0.276 GR
GR value ([6]; 0.0001 µM): 0.997 GR
GR value ([6]; 0.0003162 µM): 0.998 GR
GR value ([6]; 0.001 µM): 0.986 GR
GR value ([6]; 0.003162 µM): 0.993 GR
GR value ([6]; 0.01 µM): 0.898 GR
GR value ([6]; 0.03162 µM): 0.539 GR
GR value ([6]; 0.1 µM): 0.23 GR
GR value ([6]; 0.3162 µM): 0.0499 GR
GR value ([6]; 1 µM): -0.285 GR
GR value ([7]; 0.0001 µM): 1 GR
GR value ([7]; 0.0003162 µM): 1.01 GR
GR value ([7]; 0.001 µM): 1.01 GR
GR value ([7]; 0.003162 µM): 0.996 GR
GR value ([7]; 0.01 µM): 0.962 GR
GR value ([7]; 0.03162 µM): 0.842 GR
GR value ([7]; 0.1 µM): 0.557 GR
GR value ([7]; 0.3162 µM): -0.244 GR
GR value ([7]; 1 µM): -0.319 GR
